The test system of series [1] is B16-F10 murine melanoma cells. Briefly: Analysis of melanin content in B16-F10 murine melanoma cells (α-MSH stimulated). The conditions noted are these: for melanin content in the melanoma cells: B16-F10 cells, 25, 50 and 100 μM, FIG. 8B; for melanin content in the melanoma cells / IC50: 100 nM α-MSH, 72 hours; for IC50: Mus musculus, B16-F10 cells, read-out: IC50 for inhibiting the melanogenesis; for inhibitory activity of melanogenesis: summary statement on the isolated compounds. It counts as cell-based. As for the experimental part: The melanin content in B16-F10 murine melanoma cells was analyzed by a modified Hosoi method disclosed in 1985 (Hosoi J, Abe E, Suda T, Kuroki T, Regulation of melanin synthesis of B16 mouse melanoma cells by 1 alpha, 25-dihydroxyvitamin D3 and retinoic acid. Cancer Res. 1985; 45(4):1474-8).
First, in a 12-wells cell plate, 1×10^3 cells were implanted into each well and stayed for 24 hours to let the cells attach to the wall of the well. Various concentrations (25, 50, and 100 μM) of the compounds I, II, III, and arbutin (positive control; PC) were respectively added into each wells, and 100 nM of α-melanocyte stimulating hormone (α-MSH) was subsequently adaded. The cells were cultured for 72 hours. After the treatment above, cells were washed by PBS, and then treated by trypsin to desorb the cells. 150 μL of 1N NaOH solution containing 10% DMSO was then added and heated in a 80° C. water bath for 1 hour. After cooling to room temperature, the samples were centrifuge at 5000 rpm for 10 minutes. The upper solution was transferred into a 96-wells plate and analyzed by a microplate reader at 405 nm. The absorbance at 405 nm for each sample was read to calculate the melanin content of each sample.

Series [2] deals with NHEKs in Leiden epidermal models (LEMs). Briefly: Viability test of human epidermal skin equivalents (Leiden epidermal models, MTT). It counts as cell-based. The conditions noted are these: 24 hours exposure. As for the experimental part: In this test, fresh mamma reduction surplus skin of a single individual (D002, Fitzpatrick skin type I/II) was used for isolation of normal human epidermal keratinocytes (NHEKs).
Leiden epidermal models (LEMs) were generated by seeding NHEKs on an inert filter insert. The NHEKs in LEMS were incubated overnight under submerged conditions in keratinocyte medium. Within four days, fetal bovine serum was gradually omitted and the NHEKs in LEMs were cultured serum-free at the air-liquid interface for 7 days, while culture medium was refreshed twice a week.
Viability assays were performed by adding 0,5 mL of 1 mg/mL MTT to each of the NHEKs in LEMs for 3h, after 24 hours exposure to the test articles (compounds II, III, and DMSO (negative control)). The precipitated blue formazan product was extracted from the cells within 2 hours with 0.5 mL isopropanol per well. The concentration of formazan was measured by determining the OD at 570 nm using a Tecan Infinite F50 microplate reader.

In series [3] the test system is B16-F10 murine melanoma cells. Briefly: Viability test of B16-F10 murine melanoma cells (MTT assay). It counts as cell-based. The settings on record: 72 hours; for cell viability: FIG. 8A. Here is the method: In this test, B16-F10 murine melanoma cells (BCRC No. 60031) were used.
First, the B16-F10 murine melanoma cells were cultured in Dulbecco's Modified Eagle's Medium (abbreviated as DMEM, which contains 90% (v/v) DMEM, 10% (v/v) fetal bovine serum), and additionally added 1% (v/v) Penicillin-Streptomycin Solution. Then, the cells in the mediums were incubated under 5% CO2/air at 37° C. in 70% of humidity. The medium was exchanged every two days. When the cells grew to a density of 80-90%, the cells were treated by trypsin to desorb the cells from the walls of containers Next, haemocytometer (Neubauer Improved., Marienfeld, Germany) was used to count the number of the cells. Proper amount of cells were then transplanted into cell culture plates to prepare for cell viability tests.
Cell viability rate was determined by MTT assay. MTT assay was performed by using […] in the mitochondria of living cells to reduce yellow 3-(4,5-dimethylthiazol-2-yl)-2,5-diphenyl tetrazolium bromide (MTT) to purple formazan product. Therefore, the amount of the purple formazan product is proportional to the number of the living cells and thus can be determined by spectrophotomter.
In a 12-wells cell plate, 1×10^3 cells were implanted into each well and stayed for 24 hours to let the cells attach to the wail of the well. Then, the compounds I, II, Ill and arbutin (positive control; PC) were respectively added into each wells and cultured for 72 hours. Next, MTT dye (Applichem Co., Denmark) dissolved in 0.5 mg/ml PBS solution was added to each well to react for 2 hours. The obtained purple formazan product was dissolved in 400 μL of DMSO, and then the absorbance of the purple DMSO solution was analyzed by microplate reader to get the absorbance at 570 nm. The cell viability rate was determined by the formula below.
Cell viability rate (%)=(Absorbance of test group/absorbance of blank group)×100%

A further series has as its system tyrosinase. Kind of series: Assay of tyrosinase activity (L-tyrosine substrate, absorbance at 475 nm). The series is classed as biochemical. The conditions noted are these: mushroom tyrosinase, pH 6.8, 37° C. Here is the method: The source of the tested tyrosinase was from mushroom, and the substrate of the tyrosinase was L-tyrosine. The experiment was performed by the method below. First, 40 μL of pH 6.8 phosphate buffer solution, 40 μL of various sample solution (samples in 0.07M pH6.8 phosphate buffer solution containing 0.1 vol % of DMSO), and 40 μL of tyrosinase (250 unit/mL, dissolved in pH 6.8 phosphate buffer solution at a concentration of 0.07 M) were sequentially and respectively added into 96-wells plate. The sample solutions above respectively contain the compounds II, III, and kojic acid. The group added with the sample solution containing kojic acid was used as positive control (PC). A group without adding the sample solution was used as control (C). The mixtures described above were thermostat at 37° C. for 10 minutes. Then, 80 μL of tyrosine solutions (0.4 mg/mL, dissolved in 0.07M pH6.8 phosphate buffer solution) were respectively added into each mixture and thermostat for another 20 minutes to perform reaction. The amount of the obtained product L-DOPA of each mixture was measured at 475 nm to get absorbance of each sample. Therefore, the tyrosinase activity was calculated by the formula below. Tyrosinase activity(%)=[(A−B)/(C−D)]×100 The symbol A above is the absorbance of groups containing a sample and tyrosinase. The symbol B above is the absorbance of groups containing a sample but not tyrosinase. The symbol C above is the absorbance of groups containing tyrosinase but not a sample.

Setting [4] is: concentration of 10-100 μM, FIG. 8C.

Consider 3 compounds from US20150038575A1, “MELANOGENESIS-INHIBITORY CONSTITUENTS OF Ligusticum sinense” (priority 2013, published 2015).

Regarding `CCCC[C@@H]1OC(=O)C2=CCCC[C@H]21` [compound II, Neocnidilide], in series [1], the “melanin content in the melanoma cells” value is listed as “can decrease the melanin content”; the IC50 (as a rule, the concentration needed to halve the response being measured) amounted to 31.1 ± 6.8 µM; the “inhibitory activity of melanogenesis” value is given as “have inhibitory activity of melanogenesis”. Moreover, the “cytotoxicity to the NHEKs in the Leiden epidermal models” value in series [2] is “did not have cytotoxicity”. The cell viability (in general, a read-out of living cells in per cent, often relative to untreated cells) in series [2] (10 μM) was 97%. Also, the cell viability in series [2] (100 μM) was determined as 92%. In addition, the cell viability result in series [2] (setting [4]) is on record as “did not affect the cell viability”. Further, in series [3], the “cytotoxicity to the B16-F10 murine melanoma cells” value is “did not have cytotoxicity” and the cell viability result is “did not affect the cell viability”. Also, in the series on tyrosinase, the “inhibitory effect to the tyrosinase activity” value (“inhibitory effect” below) is “do not show obvious inhibitory effect”.
Consider `CCCC[C@@H]1OC(=O)[C@H]2CCCC[C@@H]12` [compound I, 3-Butylhexahydrophthalide], for which, in series [1], the “melanin content in the melanoma cells” value is “can decrease the melanin content”, the IC50 was determined as 100 ± 12.9 µM and the “inhibitory activity of melanogenesis” value is recorded as “have inhibitory activity of melanogenesis”. Also, in series [3], the “cytotoxicity to the B16-F10 murine melanoma cells” value is on record as “did not have cytotoxicity” and the cell viability result was “did not affect the cell viability”. For the same compound, the “inhibitory effect” value with tyrosinase is given as “do not show obvious inhibitory effect”.
As for `C=CC(c1ccc(O)c(OC)c1)c1cc(/C=C/C(=O)O)cc(OC)c1O` (stereo not drawn) [compound III], the “melanin content in the melanoma cells” value in series [1] is reported as “can decrease the melanin content”. Further, the IC50 in series [1] worked out at 78.9 ± 8.1 µM. For the same compound, the “inhibitory activity of melanogenesis” value in series [1] was “have inhibitory activity of melanogenesis”. The “cytotoxicity to the NHEKs in the Leiden epidermal models” value in series [2] was “did not have cytotoxicity”. Further, the cell viability in series [2] (10 μM) is 98%; in series [2] (50 μM) it was 104%; in series [2] (100 μM) it was 106%; in series [2] (setting [4]), “did not affect the cell viability”. Also, the “cytotoxicity to the B16-F10 murine melanoma cells” value in series [3] was “did not have cytotoxicity”. In addition, the cell growth result in series [3] (at a concentration of 100 μM) is on record as “slight tendency to inhibit cell growth”. Further, the “inhibitory effect” value in the series on tyrosinase is “do not show obvious inhibitory effect”.
